The values that follow come from patent publication US12122779B2, “Pyrrolo-pyridazine derivatives as muscarinic M1 receptor positive allosteric modulators” (SUVEN LIFE SCIENCES LIMITED, priority 2018, dated 2024).

A word on the AUC(0-t): it is the area under the concentration-time curve up to a stated or last time point. Read a low AUC(0-t) as low exposure. In general, clearance refers to a measure of how efficiently the substance is removed, as volume per time. A low value points to a low capacity for elimination. In general, half-life refers to how long it takes for the measured level to halve. As a reminder, the Cmax is the peak of the concentration-time curve. A word on the EC50: it is the concentration at which the effect is half-maximal.

Data set [1] in a line: Rodent pharmacokinetic study. The class given is in vivo, Male Wistar rats. Particulars: male, Wistar, plasma, rat; for bioavailability: oral 3 mg/kg vs intravenous 1 mg/kg, read-out: F (%) Bioavailability. The procedure:
Rodent Pharmacokinetic Study
Male Wistar rats (260±50 grams) were used as experimental animals. Animals were housed individually in polypropylene cage. Two days prior to study, male Wistar rats were anesthetized with isoflurane for surgical placement of jugular vein catheter. Rats were randomly divided for oral (3 mg/kg) and intravenous (1 mg/kg) dosing (n=3/group) and fasted overnight before oral dosing (p.o.). However, rats allocated to intravenous dosing food and water was provided ad libitum.
At pre-determined point, blood was collected through jugular vein and replenished with an equivalent volume of normal saline. Collected blood was transferred into a labeled eppendorf tube containing 10 μL of heparin as an anticoagulant. Typically blood samples were collected at following time points: 0.08, 0.25, 0.5, 1, 2, 4, 6, 8, and 24 h post dose. Blood was centrifuged at 4000 rpm for 10 minutes. Plasma was separated and stored frozen at −80° C. until analysis. The concentrations of the test compounds were quantified in plasma by qualified LC-MS/MS method using suitable extraction technique. The test compounds were quantified in the calibration range around 1-1000 ng/mL in plasma. Study samples were analyzed using calibration samples in the batch and quality control samples spread across the batch.
Pharmacokinetic parameters Cmax, AUCt, T1/2, Clearance and Bioavailability (F) were calculated by non-compartmental model using standard non-compartmental model by using Phoenix WinNonlin 6.0.4 version Software package.

The target in data set [2] is T1, recombinant human Muscarinic M1 receptor (Homo sapiens, UniProt P11229).
T1 sequence (P11229 1-460): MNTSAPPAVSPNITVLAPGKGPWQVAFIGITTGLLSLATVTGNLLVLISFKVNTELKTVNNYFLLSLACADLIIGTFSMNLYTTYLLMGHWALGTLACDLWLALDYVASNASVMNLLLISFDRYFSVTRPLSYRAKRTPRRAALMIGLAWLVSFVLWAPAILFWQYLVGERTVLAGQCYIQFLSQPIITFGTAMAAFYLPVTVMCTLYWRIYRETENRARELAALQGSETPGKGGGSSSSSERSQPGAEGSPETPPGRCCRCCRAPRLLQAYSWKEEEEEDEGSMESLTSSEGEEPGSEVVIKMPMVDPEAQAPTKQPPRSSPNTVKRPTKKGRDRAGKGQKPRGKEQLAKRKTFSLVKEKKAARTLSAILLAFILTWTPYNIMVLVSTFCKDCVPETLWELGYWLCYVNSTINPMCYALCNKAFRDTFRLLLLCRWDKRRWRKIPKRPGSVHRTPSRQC
The data set can be described thus: Allosteric potency EC50 for muscarinic M1 receptor, CHO pCRE-Luc reporter cell-based assay with EC20 of acetylcholine. As to conditions: CHO cells, luciferase activity, in presence of EC20 of acetylcholine, 4 hours. On the procedure: Determination of Allosteric Potency EC50 Values for Muscarinic M1 Receptor
A stable CHO cell line expressing recombinant human Muscarinic M1 receptor and pCRE-Luc reporter system was used for cell-based assay. The assay offers a non-radioactive based approach to determine binding of a compound to GPCRs. In this specific assay, the level of intracellular cyclic AMP which is modulated by activation or inhibition of the receptor is measured. The recombinant cells harbor luciferase reporter gene under the control of cyclic AMP response element.
The above cells were grown in 96 well clear bottom white plates in Hams F12 medium containing 10% fetal bovine serum (FBS). Prior to the addition of compounds or standard agonist, cells were serum starved overnight. Increasing concentrations of test compounds were added along with EC20 of acetylcholine in OptiMEM medium to the cells. The incubation was continued at 37° C. in CO2 incubator for 4 hours. Medium was removed and cells were washed with phosphate buffered saline. The cells were lysed and luciferase activity was measured in a Luminometer. Luminescence units were plotted against the compound concentrations using Graphpad software.

A short description of data set [3]: Rodent brain penetration study. It is filed as in vivo, Male Wistar rats. Particulars: male, Wistar, brain and plasma, po; rat, 3 mg/kg p.o., brain-plasma ratio; read-out: Single dose Rat Brain Penetration (Cb/Cp) at 3 mg/kg, p.o. The procedure: Rodent Brain Penetration Study
Male Wistar rats (260±40 grams) were used as experimental animals. Three animals were housed in each cage. Animals were given water and food ad libitum throughout the experiment and maintained on a 12 h light/dark cycle.
Brain penetration was determined in discrete manner in rats. One day prior to dosing day, male Wistar rats were acclimatized and randomly grouped according to their weight. At each time point (0.50, 1 and 2 h) n=3 animals were used.
The test compounds were suitably preformulated and administered orally at (free base equivalent) 3 mg/kg. Blood samples were removed via cardiac puncture by using isoflurane anesthesia. The animals were sacrificed to collect brain tissue. Plasma was separated and brain samples were homogenized and stored frozen at −20° C. until analysis. The concentrations of the test compounds in plasma and brain were determined using LC-MS/MS method.
The test compounds were quantified in plasma and brain homogenate by qualified LC-MS/MS method using suitable extraction technique. The test compounds were quantified in the calibration range of 1-500 ng/mL in plasma and brain homogenate. Study samples were analyzed using calibration samples in the batch and quality control samples spread across the batch. Extent of brain-plasma ratio (Cb/Cp) was calculated.

A further data set has as its system Male Wistar rats. The data set can be described thus: Object recognition task model. The class given is in vivo. As to conditions: rat, p.o.; for Exploration time mean ± S.E.M, Familiar object / Exploration time mean ± S.E.M, Novel object: choice trial 24 h after T1. The procedure: Object Recognition Task Model
Male Wistar rats (8-10 weeks old) were used as experimental animals. Four animals were housed in each cage. Animals were kept on 20% food deprivation from a day prior to experimentation. Water was provided ad libitum throughout the experiment. Animals were maintained on a 12 h light/dark cycle in temperature and humidity controlled room. The experiment was carried out in a circular or square arena made up of acrylic. Rats were habituated to individual arenas for up to 1 hour in the absence of any objects on day 1.
One group of 12 rats received vehicle and another set of animals received test compounds, before familiar (T1) and choice (T2) trials. During the familiarization phase, (T1), the rats were placed individually in the arena for 3 minutes, in which two identical objects (a1 and a2) were positioned 10 cm from the wall. 24 h after T1, trial for long-term memory test was performed. The same rats were placed in the same arena as they were placed in T1 trial. During the choice phase (T2) rats were allowed to explore the arena for 3 minutes in presence of a copy of familiar object (a3) and one novel object (b). During the T1 and T2 trial, explorations of each object (defined as sniffing, licking, chewing or having moving vibrissae whilst directing the nose towards the object at a distance of less than 1 cm) were recorded using stopwatch. • T1 is the total time spent exploring the familiar objects (a1+a2). • T2 is the total time spent exploring the familiar object and novel object (a3+b).
The object recognition test was performed as described in Behav. Brain Res., 1988, 31, 47-59.

In data set [1] (intravenous (bolus), 1 mg/kg), `Cc1cncc(-c2ccc(Cc3cc(C(=O)N[C@H]4CCCC[C@@H]4O)nn4cccc34)cc2)c1` (stereo in doubt) [Example 44, N-[(1S,2S)-2-Hydroxycyclohexyl]-4-[4-(5-methylpyridin-3-yl)-benzyl]-pyrrolo[1,2-b]pyridazine-2-carboxamide] gave an AUC(0-t) of 2290 ± 121 ng·h/mL, a clearance of 7.1 ± 0.4 mL/min/kg and a half-life of 1.7 ± 0.1 h. Also, in data set [1], the bioavailability was found to be 64 ± 9%. Also, in data set [1] (oral (gavage), 3 mg/kg), the AUC(0-t) came to 4430 ± 618 ng·h/mL, the Cmax was found to be 1440 ± 241 ng/mL and the half-life is 1.79 ± 0.37 h. Also, in data set [2], the EC50 was 96 nM. The Kp in data set [3] was found to be 0.17 ± 0.01.

On to `O=C(NC1CCOCC1)c1cc(Cc2ccc(Cl)cc2)c2cccn2n1` [Example 14, N-[Tetrahydropyran-4-yl]-4-(4-chlorobenzyl)-pyrrolo[1,2-b]pyridazine-2-carboxamide], for which, in the data set on Male Wistar rats (3 mg/kg), the Inference entry is on record as “Active”; the “Exploration time mean ± S.E.M, Familiar object” value turned out to be 11.28 ± 2.18 s; the “Exploration time mean ± S.E.M, Novel object” value is 23.08 ± 2.96 s. In data set [1] (intravenous (bolus), 1 mg/kg), this compound showed an exposure AUC(0-t) of 569 ± 74 ng·h/mL, a clearance of 27 ± 1 mL/min/kg and a half-life of 5.7 ± 0.7 h. For the same compound, the bioavailability in data set [1] is 31 ± 6%. In data set [1] (oral (gavage), 3 mg/kg), this compound had an AUC(0-t) of 532 ± 102 ng·h/mL, a Cmax of 68 ± 22 ng/mL and a half-life of 7.9 ± 1.3 h. Besides, the EC50 in data set [2] amounted to 976 nM. Moreover, the Kp in data set [3] is 3.26 ± 0.02.

With `Cn1cc(-c2ccc(Cc3cc(C(=O)NCC(C)(C)O)nn4cccc34)cc2)cn1` [Example 19, N-[2-hydroxy-2-methyl-propyl] 4-[4-(1-methyl-1H-pyrazol-4-yl)-benzyl]-pyrrolo[1,2-b]pyridazine-2-carboxamide], in data set [1] (intravenous (bolus), 1 mg/kg), the AUC(0-t) turned out to be 983 ± 91 ng·h/mL, the clearance is 17 ± 1.6 mL/min/kg and the half-life is 0.5 h. Further, the bioavailability in data set [1] was found to be 66 ± 18%. Moreover, in data set [1] (oral (gavage), 3 mg/kg), the exposure AUC(0-t) is 1940 ± 520 ng·h/mL, the Cmax was 933 ± 260 ng/mL and the half-life is 1 ± 0.1 h. Also, the EC50 in data set [2] worked out at 336 nM. In addition, the Kp in data set [3] came to 0.26 ± 0.02.

In data set [1] (intravenous (bolus), 1 mg/kg), `Cn1cc(-c2ccc(Cc3cc(C(=O)NCC4(O)CCCCC4)nn4cccc34)cc2)cn1` [Example 24, N-[l-Hydroxy-cyclohexylmethyl] 4-[4-(1-methyl-1H-pyrazol-4-yl)-benzyl]-pyrrolo[1,2-b]pyridazine-2-carboxamide] gave an area under the curve AUC(0-t) of 359 ± 58 ng·h/mL, a clearance of 47 ± 8 mL/min/kg and a half-life of 1.6 ± 0.3 h. Besides, the bioavailability in data set [1] worked out at 5 ± 1%. In data set [1] (oral (gavage), 3 mg/kg), this compound had an AUC(0-t) of 52 ± 8 ng·h/mL, a Cmax of 16 ± 4 ng/mL and a half-life of 1.9 ± 1.1 h. For the same compound, the EC50 in data set [2] was 531 nM. Also, the Kp in data set [3] turned out to be 0.38.

On to `CC(C)(O)CNC(=O)c1cc(Cc2ccc(-c3cccnc3)cc2)c2cccn2n1` [Example 29, N-[2-Hydroxy-2-methyl-propyl] 4-[4-(3-pyridyl)-benzyl]-pyrrolo[1,2-b]pyridazine-2-carboxamide], for which, in the data set with Male Wistar rats (1 mg/kg), the Inference result is “Active”; the “Exploration time mean ± S.E.M, Familiar object” value turned out to be 12.17 ± 1.26 s; the “Exploration time mean ± S.E.M, Novel object” value was 22.26 ± 1.05 s. In data set [1] (intravenous (bolus), 1 mg/kg), this compound gave an AUC(0-t) of 2280 ± 161 ng·h/mL, a clearance of 7.2 ± 0.5 mL/min/kg and a half-life of 1.5 ± 0.1 h. For the same compound, in data set [1], the bioavailability worked out at 88 ± 4%. For the same compound, in data set [1] (oral (gavage), 3 mg/kg), the exposure AUC(0-t) was 6030 ± 279 ng·h/mL, the Cmax came to 1810 ± 327 ng/mL and the half-life was 2.2 ± 0.6 h. Besides, the EC50 in data set [2] came out at 1170 nM. Besides, in data set [3], the Kp was 0.31 ± 0.04.

For `O=C(NC1CCOCC1)c1cc(Cc2ccc(-c3ccncc3)cc2)c2cccn2n1` [Example 31, N-[Tetrahydropyran-4-yl] 4-[4-(4-pyridyl)-benzyl]-pyrrolo[1,2-b]pyridazine-2-carboxamide], in the data set on Male Wistar rats (0.1 mg/kg), the Inference entry is “Active”; the “Exploration time mean ± S.E.M, Familiar object” value was determined as 14.19 ± 1.02 s; the “Exploration time mean ± S.E.M, Novel object” value was found to be 20.18 ± 1.21 s. In data set [1] (intravenous (bolus), 1 mg/kg), this compound gave an AUC(0-t) of 576 ± 192 ng·h/mL, a clearance of 30.3 ± 8.9 mL/min/kg and a half-life of 1.5 ± 0.4 h. For the same compound, in data set [1], the bioavailability stood at 114 ± 20%. Besides, in data set [1] (oral (gavage), 3 mg/kg), the AUC(0-t) worked out at 1960 ± 360 ng·h/mL, the highest concentration (Cmax) was found to be 363 ± 40 ng/mL and the half-life is 2.8 ± 0.1 h. The EC50 in data set [2] was determined as 1550 nM. The Kp in data set [3] was determined as 1.41 ± 0.19.
